pEC50: −log10 of the molar value.

The target in one assay is human APJ receptor (Homo sapiens (Human), UniProt P35414). The assay is described as follows: Intracellular cAMP accumulation assay (APJ hcAMP, HTRF). It is filed as cell-based. To be noted: HEK293 cells stably expressing human APJ receptor; inhibition of forskolin-mediated cAMP production; read-out: hAPJ cAMP EC50 (nM) Potency range. The procedure, abridged: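 HEK293 cells stably expressing human APJ, 5,000 per well, exposed to compound with […] IBMX and 2 μM forskolin for 30 minutes at room temperature. cAMP measured by HTRF after lysis and 60 min detection incubation. EC50 from sigmoidal variable-slope fits of inhibition of forskolin-induced cAMP, quantified against a cAMP standard curve.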
Sequence of human APJ receptor (P35414 whole entry): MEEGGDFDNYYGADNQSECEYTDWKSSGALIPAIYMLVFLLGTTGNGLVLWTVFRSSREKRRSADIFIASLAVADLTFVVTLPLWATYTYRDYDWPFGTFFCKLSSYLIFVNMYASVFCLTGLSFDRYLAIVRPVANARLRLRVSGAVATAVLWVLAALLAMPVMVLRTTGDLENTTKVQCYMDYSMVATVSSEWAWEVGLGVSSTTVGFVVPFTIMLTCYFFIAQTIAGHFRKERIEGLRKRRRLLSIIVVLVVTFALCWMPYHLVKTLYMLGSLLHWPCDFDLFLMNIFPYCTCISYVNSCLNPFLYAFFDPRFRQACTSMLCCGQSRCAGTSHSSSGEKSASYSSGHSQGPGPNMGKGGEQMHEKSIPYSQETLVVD
On the technique in general: Cyclic AMP is a second messenger, typically raised through Gs and lowered through Gi signalling.
Take `CCOCc1nc(O)c(-c2nnc(CNC(=O)c3ccccn3)s2)c(O)c1-c1c(OC)cccc1OC` [Example 235, N-({5-[5-(2,6-dimethoxyphenyl)-6-(ethoxymethyl)-2,4-dihydroxypyridin-3-yl]-1,3,4-thiadiazol-2-yl}methyl) pyridine-2-carboxamide]: the EC50 was in the range of 10 to 100 nM.

Regarding `CCCCc1nc(O)c(-c2nnc(CC(=O)NCc3ccccc3Cl)o2)c(O)c1-c1c(OC)cccc1OC` [Example 265, 2-{5-[6-butyl-5-(2,6-dimethoxyphenyl)-2,4-dihydroxy-pyridin-3-yl]-1,3,4-oxadiazol-2-yl}-N-[(2-chlorophenyl)methyl]acetamide], the EC50 is 0.01 to 10 nM.

The assay is the same for the next values; noted with them: HEK293 cells stably expressing human APJ receptor; inhibition of forskolin-mediated cAMP production; read-out: hAPJ cAMP EC50 Potency range.
As for `CCCCc1nc(O)c(-c2nnc(CN(C)C(=O)c3ccncc3)o2)c(O)c1-c1c(OC)cccc1OC` [Example 159, N-({5-[6-butyl-5-(2,6-dimethoxyphenyl)-2,4-dihydroxypyridin-3-yl]-1,3,4-oxadiazol-2-yl}methyl)-N-methylpyridine-4-carboxamide], the pEC50 was 8.00 to 11.00.

Regarding `CCCCc1nc(O)c(-c2nnc(Cc3nnc(-c4cccnc4)o3)o2)c(O)c1-c1c(OC)cccc1OC` [Example 211, 6-butyl-5-(2,6-dimethoxyphenyl)-3-(5-{[5-(pyridin-3-yl)-1,3,4-oxadiazol-2-yl]methyl}-1,3,4-oxadiazol-2-yl)pyridine-2,4-diol], the pEC50 was 7.00 to 8.00.

For `CCCCc1nc(O)c(-c2nnc(CN(C)C(=O)c3cccc(Cl)c3)o2)c(O)c1-c1c(OC)cccc1OC` [Example 156, N-({5-[6-butyl-5-(2,6-dimethoxyphenyl)-2,4-dihydroxypyridin-3-yl]-1,3,4-oxadiazol-2-yl}methyl)-3-chloro-N-methylbenzamide], the pEC50 is 8.00 to 11.00.

As for `CCCCc1nc(O)c(-c2nnc(Cc3cnccn3)o2)c(O)c1-c1c(OC)cccc1OC` [Example 21, 6-butyl-5-(2,6-dimethoxyphenyl)-3-[5-(pyrazin-2-ylmethyl)-1,3,4-oxadiazol-2-yl]pyridine-2,4-diol], the pEC50 was 8.00 to 11.00.

For the compound `CCCCc1nc(O)c(-c2nnc(CCc3ccccc3)o2)c(O)c1-c1c(OC)cccc1OC` [Example 4, 6-butyl-5-(2,6-dimethoxyphenyl)-3-[5-(2-phenylethyl)-1,3,4-oxadiazol-2-yl]pyridine-2,4-diol], the pEC50 was 7.00 to 8.00.

The term EC50 denotes the concentration that produces a half-maximal response. Usually pEC50 stands for the negative decadic logarithm of the EC50, by convention in mol/L.

The record behind these values is patent US10336739B2, “4-hydroxy-3-(heteroaryl)pyridine-2-one APJ agonists” (BRISTOL-MYERS SQUIBB COMPANY, priority 2015, dated 2019).
